# From US10039282B2, “Six-membered C—N-bonded aryl sulphide and aryl sulphoxide derivatives as pesticides” (BAYER CROPSCIENCE AKTIENGESELLSCHAFT, priority 2013, dated 2018)
# Read-outs that look alike come from different tables or passages of the source.
# Legend:
# Tetranychus urticae = Tetranychus urticae spray test, OP-resistant (bean leaf discs); type: in vivo; settings: 500 g/ha, after 6 days
# Procedure: 4. Tetranychus urticae—Spray Test, OP-Resistant
# Solvent: 78.0 parts by weight of acetone
# • 1.5 parts by weight of dimethylformamide Emulsifier: alkylaryl polyglycol ether
# To produce further test concentrations, the preparation is diluted with emulsifier-containing water.
# After 6 days, the efficacy in % is determined. 100% means that all the spider mites have been killed; 0% means that none of the spider mites have been killed.
# [1] = log P by reversed-phase HPLC analogously to OECD Guideline 117; type: physicochemical; settings: for logP (HCOOH): pH 2.7; for logP (neutral): pH 7.8
# Procedure: The log P values were determined analogously to OECD Guideline 117 (EC Directive 92/69/EEC) by HPLC (high-performance liquid chromatography) using reversed-phase columns (C 18), by the following methods:
# [a] The LC-MS determination in the acidic range is effected at pH 2.7 with 0.1% aqueous formic acid and acetonitrile (contains 0.1% formic acid) as eluents; linear gradient from 10% acetonitrile to 95% acetonitrile. log P^[…] is also referred to as log P(HCOOH). [b] LC-MS determination in the neutral range is effected at pH 7.8 with 0.001 molar aqueous ammonium hydrogencarbonate solution and acetonitrile as eluents; linear gradient from 10% acetonitrile to 95% acetonitrile. log P^[…] is also referred to as log P(neutral).
# Calibration is effected with solutions of a homologous series of unbranched alkan-2-ones (having 3 to 16 carbon atoms) with known log P values (log P values determined on the basis of the retention times by linear interpolation between two successive alkanones).
# [2] = reversed-phase C18 HPLC column, acidic range, pH 2.7, 0.1% aqueous formic acid/acetonitrile, read-out: logP (HCOOH)
# [3] = reversed-phase C18 HPLC column, neutral range, pH 7.8, 0.001 molar aqueous ammonium hydrogencarbonate/acetonitrile, read-out: logP (neutral)
# [4] = acidic range, pH 2.7, 0.1% aqueous formic acid/acetonitrile, read-out: logP (HCOOH)
SMILES,efficacy (spider mites killed) (Tetranychus urticae),logP (HCOOH) [1],further results
Cc1cc(F)c(-n2cnc(C3CC3)cc2=O)cc1[S+]([O-])CC(F)(F)F (racemic) [Example 7],100%,,
CCc1cc(=O)n(-c2cc([S+]([O-])CC(F)(F)F)c(C)cc2F)cn1 (racemic) [Example 10],100%,,
Cc1cc(C)c([S+]([O-])CC(F)(F)F)cc1-n1c(C)nc(C(F)(F)F)cc1=O (racemic) [Example 14],100%,,
CCc1cc(=O)n(-c2ccc(C)c([S+]([O-])CC(F)(F)F)c2)cn1 (racemic) [Example 17],100%,,
Cc1cc(F)c(-n2c(C)nc(C(F)(F)F)cc2=O)cc1[S+]([O-])CC(F)(F)F (racemic) [Example 19],100%,,
CCc1cc(=O)n(-c2cc([S+]([O-])CC(F)(F)F)c(C)cc2C)cn1 (racemic) [Example 24],90%,,
Cc1ccc(-n2cnccc2=O)cc1[S+]([O-])CC(F)(F)F (racemic) [Example 28],90%,,
O=c1cc(C(F)(F)F)ncn1-c1cc([S+]([O-])CC(F)(F)F)c(Cl)cc1F (racemic) [Example 29],100%,,
Cc1cc(C)c([S+]([O-])CC(F)(F)F)cc1-n1cnc(C2CC2)cc1=O (racemic) [Example 35],90%,,
Cc1cc(C)c([S+]([O-])CC(F)(F)F)cc1-n1cnc(C)c(C)c1=O (racemic) [Example 48],90%,,
Cc1cc(F)c(-n2cnc(C(C)C)cc2=O)cc1[S+]([O-])CC(F)(F)F (racemic) [Example 52],100%,,
"Cc1cc(F)c(-n2cnc(C(F)(F)F)cc2=O)cc1SCC(F)(F)F [Example 1, 3-{2-Fluoro-4-methyl-5-[(2,2,2-trifluoroethyl)sulphanyl]phenyl}-6-(trifluoromethyl)pyrimidin-4(3H)-one]",100%,,"chromatographic logP [1, 2]: 3.42; chromatographic logP [1, 3]: 3.4"
Cc1cc(F)c(-n2c(C)nc(C(F)(F)F)cc2=O)cc1SCC(F)(F)F [Example 8],100%,,
Cc1cc(C)c(-n2cnc(C)c(C)c2=O)cc1SCC(F)(F)F [Example 13],100%,,
O=c1cc(C(F)(F)F)ncn1-c1cc(SCC(F)(F)F)c(Br)cc1F [Example 15],100%,,
O=c1cc(C(F)(F)F)ncn1-c1cc(SCC(F)(F)F)c(Cl)cc1F [Example 16],100%,,
Cc1cc(=O)n(-c2cc(SCC(F)(F)F)c(C)cc2C)cn1 [Example 20],100%,,
Cc1cc(C)c(-n2cnc(C3CC3)cc2=O)cc1SCC(F)(F)F [Example 23],100%,,
Cc1cc(F)c(-n2cnc(C(C)C)cc2=O)cc1SCC(F)(F)F [Example 31],100%,,
Cc1cc(F)c(-n2cnc(C(F)F)cc2=O)cc1SCC(F)(F)F [Example 32],100%,,
Cc1cc(C)c(-n2cnc(C(F)(F)C(F)(F)F)cc2=O)cc1SCC(F)(F)F [Example 36],100%,,
Cc1cc(F)c(-n2cnc(C3CC3)cc2=O)cc1SCC(F)(F)F [Example 37],100%,,
CCc1cc(=O)n(-c2cc(SCC(F)(F)F)c(C)cc2C)cn1 [Example 39],100%,,
CCc1cc(=O)n(-c2ccc(C)c(SCC(F)(F)F)c2)cn1 [Example 43],90%,,
Cc1cc(C)c(-n2cnc(C(C)(F)F)cc2=O)cc1SCC(F)(F)F [Example 51],100%,,
O=c1cc(C(F)(F)F)ncn1-c1ccc(Cl)c(SCC(F)(F)F)c1 [Example 54],100%,,

SMILES,efficacy (spider mites killed) (Tetranychus urticae),logP (HCOOH) [1],further results
CCc1cc(=O)n(-c2cc(SCC(F)(F)F)c(C)cc2F)cn1 [Example 57],100%,,
"Cc1cc(F)c(NC(=O)/C=C(\N)C(F)(F)F)cc1SCC(F)(F)F [IIa-1, 3-Amino-4,4,4-trifluoro-N-{2-fluoro-4-methyl-5-[(2,2,2-trifluoroethyl)sulphanyl]phenyl}but-2-enamide]",,,"chromatographic logP [1, 2]: 3.61; chromatographic logP [1, 3]: 3.6"
"Cc1cc(C)c(SCC(F)(F)F)cc1NC(=O)/C=C(\N)C(F)(F)F [IIa-2, 3-Amino-N-[2,4-dimethyl-5-(2,2,2-trifluoroethylsulphanyl)phenyl]-4,4,4-trilluorobut-2-enamide]",,,"chromatographic logP [1, 2]: 3.63; chromatographic logP [1, 3]: 3.61"
NC(=CC(=O)Nc1cc(SCC(F)(F)F)c(Cl)cc1Cl)C(F)(F)F [IIa-3],,4.24,logP (neutral) [1]: 4.13
NC(=CC(=O)Nc1cc(SCC(F)(F)F)c(Cl)cc1F)C(F)(F)F [IIa-4],,3.83,logP (neutral) [1]: 3.73
NC(=CC(=O)Nc1cc(SCC(F)(F)F)c(Br)cc1F)C(F)(F)F [IIa-5],,3.88,logP (neutral) [1]: 3.78
Cc1ccc(NC(=O)C=C(N)C(F)(F)F)cc1SCC(F)(F)F [IIa-6],,3.58,logP (neutral) [1]: 3.49
NC(=CC(=O)Nc1ccc(Cl)c(SCC(F)(F)F)c1)C(F)(F)F [IIa-7],,3.66,logP (neutral) [1]: 3.65
Cc1cc(Cl)c(NC(=O)C=C(N)C(F)(F)F)cc1SCC(F)(F)F [IIa-8],,4.05,logP (neutral) [1]: 3.99
Cc1cc(F)c(NC(=O)C=C(N)C(F)F)cc1SCC(F)(F)F [IIa-9],,3.23,logP (neutral) [1]: 3.21
Cc1cc(C)c(SCC(F)(F)F)cc1NC(=O)C=C(N)C(F)F [IIa-10],,3.24,logP (neutral) [1]: 3.15
Cc1cc(F)c(NC(=O)C=C(N)C(C)(F)F)cc1SCC(F)(F)F [IIa-11],,3.55,logP (neutral) [1]: 3.49
Cc1cc(C)c(SCC(F)(F)F)cc1NC(=O)C=C(N)C(C)(F)F [IIa-12],,3.52,logP (neutral) [1]: 3.40
"Cc1cc(F)c(NC(=O)/C=C(\O)C(F)(F)F)cc1SCC(F)(F)F [XXXI-1, 4,4,4-Trifluoro-N-{2-fluoro-4-methyl-5-[(2,2,2-trifluoroethyl)sulphanyl]phenyl}-3-hydroxybut-2-enamide]",,,"chromatographic logP [1, 4]: 2.77; chromatographic logP [1, 3]: 1.43"
"Cc1cc(C)c(SCC(F)(F)F)cc1NC(=O)/C=C(\O)C(F)(F)F [XXXI-2, N-[2,4-Dimethyl-5-(2,2,2-trifluoroethylsulphanyl)phenyl]-4,4,4-trifluoro-3-hydroxybut-2-enamide]",,,"chromatographic logP [1, 4]: 2.87"
O=C(C=C(O)C(F)(F)F)Nc1cc(SCC(F)(F)F)c(Cl)cc1Cl [XXXI-3],,3.13,
O=C(C=C(O)C(F)(F)F)Nc1cc(SCC(F)(F)F)c(Cl)cc1F [XXXI-4],,2.86,logP (neutral) [1]: 1.45
O=C(C=C(O)C(F)(F)F)Nc1cc(SCC(F)(F)F)c(Br)cc1F [XXXI-5],,2.93,
Cc1ccc(NC(=O)C=C(O)C(F)(F)F)cc1SCC(F)(F)F [XXXI-6],,2.80,
O=C(C=C(O)C(F)(F)F)Nc1ccc(Cl)c(SCC(F)(F)F)c1 [XXXI-7],,2.84,
Cc1cc(Cl)c(NC(=O)C=C(O)C(F)(F)F)cc1SCC(F)(F)F [XXXI-8],,3.01,logP (neutral) [1]: 1.44
Cc1cc(F)c(NC(=O)C=C(O)C(F)F)cc1SCC(F)(F)F [XXXI-9],,2.47,
Cc1cc(C)c(SCC(F)(F)F)cc1NC(=O)C=C(O)C(F)F [XXXI-10],,2.53,
Cc1cc(F)c(NC(=O)C=C(O)C(C)(F)F)cc1SCC(F)(F)F [XXXI-11],,2.72,
Cc1cc(C)c(SCC(F)(F)F)cc1NC(=O)C=C(O)C(F)(F)C(F)(F)F [XXXI-14],,,logP (neutral) [1]: 1.63
